In patent US9745265B2, “4-heteroaryl substituted benzoic acid compounds as RORgammaT inhibitors and uses thereof” (Merck Sharp & Dohme Corp., priority 2012, dated 2017):
pIC50: −log10 of the molar value. Where two headings read alike, the source gives them in different places.

Molecular target: human RORgammaT-Ligand Binding Domain (LBD) (Homo sapiens (Human), UniProt P51449)
Experiment: RORγ-Ligand Binding Domain TR-FRET Assay (SRC1_2 co-activator peptide)
Type: biochemical
[1] = HIS-tagged RORγ-LBD 3 nM, biotinylated SRC1 LXXLL peptide 100 nM, incubated overnight at 4° C., 665/615 nm ratio

human RORgammaT-Ligand Binding Domain (LBD), sequence (P51449 269-508): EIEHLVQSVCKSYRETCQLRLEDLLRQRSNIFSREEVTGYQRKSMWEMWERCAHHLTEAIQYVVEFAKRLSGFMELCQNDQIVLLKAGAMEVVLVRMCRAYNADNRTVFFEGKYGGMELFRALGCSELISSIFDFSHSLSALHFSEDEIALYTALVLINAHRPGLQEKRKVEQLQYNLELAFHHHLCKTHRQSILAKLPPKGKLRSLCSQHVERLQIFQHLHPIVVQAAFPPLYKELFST

Compound	pIC50	pIC50 [1]
O=C(O)c1ccc(-c2nn(C(=O)c3c(Cl)cccc3OC3CC3)c3ccccc23)cc1 [Example 1H, 4-(1-(2-chloro-6-cyclypropoxybenzoyl)-1H-indazol-3-yl)benzoic acid]	7.41	
CC(O)C#Cc1ccc2c(-c3ccc(C(=O)O)cc3F)nn(C(=O)c3c(Cl)cccc3C(F)(F)F)c2c1 (stereo not drawn) [Example 12A, 4-(1-(2-chloro-6-(trifluoromethyl)benzoyl)-6-(3-hydroxybut-1-ynyl)-1H-indazol-3-yl)-3-fluorobenzoic acid]		6.98
CS(=O)(=O)Nc1cc(-c2nn(C(=O)c3c(Cl)cccc3C(F)(F)F)c3cccnc23)ccc1C(=O)O [Example 3B, 4-(1-(2-chloro-6-(trifluoromethyl)benzoyl)-1H-pyrazolo[4,3-b]pyridin-3-yl)-2-(methylsulfonamido)benzoic acid]	5.78	
COCC(=O)n1nc(-c2ccc(C(=O)O)cc2F)c2ccccc21 [Example 1J, 3-fluoro-4-[1-(methoxy-acetyl)-1H-indazol-3-yl]benzoic acid]	5.25	
CC(=O)Nc1cc(-c2nn(C(=O)c3c(Cl)cccc3C(F)(F)F)c3ccccc23)ccc1C(=O)O [Example 3A, 2-acetamido-4-(1-(2-chloro-6-(trifluoromethyl)benzoyl)-1H-indazol-3-yl)benzoic acid]		5.83
Cc1cc(N(C)C)cc(Cl)c1C(=O)n1nc(-c2ccc(C(=O)O)cc2F)c2ncccc21 [Example 42A, 4-(1-(2-chloro-4-(dimethylamino)-6-methylbenzoyl)-1H-pyrazolo[4,3-b]pyridin-3-yl)-3-fluorobenzoic acid]		5.63
O=C(O)c1ccc(-c2nn(C(=O)c3c(Cl)cccc3C(F)(F)F)c3cc(N4CCOCC4)ccc23)cc1 [Example 4H, 4-(1-(2-chloro-6-(trifluoromethyl)benzoyl)-6-morpholino-1H-indazol-3-yl)benzoic acid]		5.36
O=C(O)c1ccc(-c2nn(C(=O)c3cccc4ccoc34)c3ccccc23)c(F)c1 [Example 1S, 4-[1-(1-benzofuran-7-ylcarbonyl)-1H-indazol-3-yl]-3-fluorobenzoic acid]	5.83	
C[C@@H]1CN(C(=O)c2ccc3c(-c4ccc(C(=O)O)cc4F)nn(C(=O)c4c(Cl)cccc4C(F)(F)F)c3c2)C[C@H](C)O1 [Example 2B, 4-(1-(2-chloro-6-(trifluoromethyl)benzoyl)-6-((2S,6R)-2,6-dimethylmorpholine-4-carbonyl)-1H-indazol-3-yl)-3-fluorobenzoic acid]	7.82	
CN(c1ccc2c(-c3ccc(C(=O)O)cc3F)nn(C(=O)c3c(Cl)cccc3C(F)(F)F)c2c1)S(C)(=O)=O [Example 5G, 4-(1-(2-chloro-6-(trifluoromethyl)benzoyl)-6-(N-methylmethylsulfonamido)-1H-indazol-3-yl)-3-fluorobenzoic acid]		5.82
CC(C(=O)n1nc(-c2ccc(C(=O)O)cc2F)c2ccccc21)c1ccccc1 (stereo not drawn) [Example 1I, 3-fluoro-4-(1-(2-phenylpropanoyl)-1H-indazol-3-yl)benzoic acid]	5.36	
O=C1CCN(C(=O)c2ccc3c(-c4ccc(C(=O)O)cc4F)nn(C(=O)c4c(Cl)cccc4C(F)(F)F)c3c2)CC1 [Example 2C, 4-(1-(2-chloro-6-(trifluoromethyl)benzoyl)-6-(4-oxopiperidine-1-carbonyl)-1H-indazol-3-yl)-3-fluorobenzoic acid]		8.40
CC(C)(C)OC(=O)Nc1cc2c(-c3ccc(C(=O)O)cc3F)cn(C(=O)c3c(Cl)cccc3C(F)(F)F)c2cn1 [Example 28A, 4-(5-(tert-butoxycarbonylamino)-1-(2-chloro-6-(trifluoromethyl)benzoyl)-1H-pyrrolo[2,3-c]pyridin-3-yl)-3-fluorobenzoic acid]		6.74
Cc1cc(N2CCOCC2)cc(Cl)c1C(=O)n1nc(-c2ccc(C(=O)O)cc2F)c2ncccc21 [Example 40A, 4-(1-(2-chloro-6-methyl-4-morpholinobenzoyl)-1H-pyrazolo[4,3-b]pyridin-3-yl)-3-fluorobenzoic acid]		5.16
CC(C)(C)OC(=O)Nc1cnc2c(-c3ccc(C(=O)O)cc3F)nn(C(=O)c3c(Cl)cccc3C(F)(F)F)c2c1 [Example 29A, 4-(6-(tert-butoxycarbonylamino)-1-(2-chloro-6-(trifluoromethyl)benzoyl)-1H-pyrazolo[4,3-b]pyridin-3-yl)-3-fluorobenzoic acid]		6.72
